Columns and labels:
[1] = tested on: mitochondrial transcription (7S RNA) in HeLa cells; assay: Quantitative real time-PCR assay of inhibition of mitochondrial transcription (cellular qPCR assay IMT); assay type: cell-based; settings: Homo sapiens, 4 h compound incubation, qRT-PCR according to Example 5, activity class
Description: Quantitative real-time PCR (qRT-PCR), based on the TagMan™ (Thermo Fisher Scientific, Waltham Mass.) technology, was carried out essentially as described in (Heid et al., 1996). HeLa cells were plated one day before compound treatment in RPMI medium supplemented with 10% Fetal Calf Serum and 2 mM L-glutamine. Cells were incubated with dilution series of compounds or vehicle (DMSO) for 4 h, prior to harvest and extraction of the RNA using the RNeasy Mini Kit (Qiagen, Hilden D), according to the manufacturer's instructions. RNA concentrations were measured spectroscopically, using a NanoDrop-2000 (Thermo Fisher Scientific, Waltham Mass.) and normalized prior to cDNA synthesis, using a ‘High-Capacity cDNA Reverse Transcription Kit’ (Thermo Fisher Scientific, Waltham Mass.). qRT-PCR was carried out using the ‘TaqMan Fast Advance Master Mix’ (Thermo Fisher Scientific, Waltham Mass.) on a 7500 Fast Real-Time PCR machine (Applied Biosystems, Foster City Calif.)
For these measurements, three genes were used to compare the effect of the scrutinized compounds in relation to their concentration. The POLRMT-gene was used to detect potential influences on nuclear transcription. Mitochondrial transcription in vivo was monitored by measurements 7S RNA. The TBP (TATA-box binding protein) gene was employed as the control (housekeeping gene) during qRT-PCR. The short-lived mitochondrial 7S RNA, which is not post-transcriptionally stabilized, allowed us to monitor rapid changes in mitochondrial transcription activity following compound addition. Biological triplicates were analyzed using the comparative CT Method (ΔΔCt) method (Bubner and Baldwin, 2004) and reported as Rq % values (Rq=Relative quantification=2-ΔΔCt).

[2] = biological target: mitochondrial RNA-polymerase (POLRMT) (Mus musculus, UniProt Q8BKF1); assay: Homogeneous TR-FRET assay for mitochondrial transcription activity; assay type: biochemical; settings: homogeneous TR-FRET assay according to Example 4; activity class
Summary of the method: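 Mouse POLRMT, TFAM and TFB2M with linearized pUC-LSP template in 10 mM Tris-HCl pH 7.5, 10 mM MgCl2, 40 mM NaCl; compounds at 10 μM or serial dilution, 10 min RT preincubation. Started with 500 μM each […], 2 h RT; 407 bp RNA product detected by hybridized Eu-cryptate/ATTO647N probe TR-FRET (ex 340, em 665 nm).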

mitochondrial RNA-polymerase (POLRMT), sequence (Q8BKF1 42-1207): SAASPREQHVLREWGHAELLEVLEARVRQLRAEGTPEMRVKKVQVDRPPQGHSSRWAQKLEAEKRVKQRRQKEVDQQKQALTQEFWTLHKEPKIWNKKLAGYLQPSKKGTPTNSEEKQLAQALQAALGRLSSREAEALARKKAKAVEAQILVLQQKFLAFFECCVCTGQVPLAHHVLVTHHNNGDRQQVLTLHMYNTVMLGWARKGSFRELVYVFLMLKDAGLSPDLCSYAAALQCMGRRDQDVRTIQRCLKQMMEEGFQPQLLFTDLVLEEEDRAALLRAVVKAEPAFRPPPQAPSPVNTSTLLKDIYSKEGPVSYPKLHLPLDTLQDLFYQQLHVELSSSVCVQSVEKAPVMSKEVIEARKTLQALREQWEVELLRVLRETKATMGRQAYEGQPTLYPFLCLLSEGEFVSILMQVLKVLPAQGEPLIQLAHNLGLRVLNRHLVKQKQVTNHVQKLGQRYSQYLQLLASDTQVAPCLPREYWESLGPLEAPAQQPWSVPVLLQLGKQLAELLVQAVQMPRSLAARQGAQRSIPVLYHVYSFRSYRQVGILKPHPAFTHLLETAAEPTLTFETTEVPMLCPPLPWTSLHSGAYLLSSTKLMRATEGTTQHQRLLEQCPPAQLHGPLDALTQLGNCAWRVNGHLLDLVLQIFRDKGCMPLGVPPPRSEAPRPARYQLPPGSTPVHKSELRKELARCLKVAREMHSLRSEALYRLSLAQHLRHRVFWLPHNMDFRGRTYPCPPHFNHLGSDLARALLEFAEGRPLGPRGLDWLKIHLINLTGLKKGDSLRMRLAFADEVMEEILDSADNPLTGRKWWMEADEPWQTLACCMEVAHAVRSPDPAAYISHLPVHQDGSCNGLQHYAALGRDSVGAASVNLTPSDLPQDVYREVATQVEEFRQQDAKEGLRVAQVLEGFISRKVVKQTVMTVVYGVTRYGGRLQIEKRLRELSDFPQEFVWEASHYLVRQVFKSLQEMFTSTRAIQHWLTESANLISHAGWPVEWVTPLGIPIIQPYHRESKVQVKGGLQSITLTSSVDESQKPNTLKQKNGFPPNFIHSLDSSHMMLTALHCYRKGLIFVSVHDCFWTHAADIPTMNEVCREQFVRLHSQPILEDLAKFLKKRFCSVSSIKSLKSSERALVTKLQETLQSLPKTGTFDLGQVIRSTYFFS

Row | SMILES | IC50 [1] | IC50 [2]
1 | CC(Oc1ccc2c(-c3ccc(F)cc3Cl)cc(=O)oc2c1)C(=O)N1CCCC(C)(C(=O)O)C1 (stereo not drawn) [Compound 37, 1-[2-[4-(2-chloro-4-fluoro-phenyl)-2-oxo-chromen-7-yl]oxypropanoyl]-3-methyl-piperidine-3-carboxylic acid] | < 10 nM | < 20 nM
2 | Cc1ccccc1-c1cc(=O)oc2cc(OC(C)C(=O)N3CCCC(c4nn[nH]n4)C3)ccc12 (stereo not drawn) [Compound 42, 7-((1-(3-(2H-tetrazol-5-yl)piperidin-1-yl)-1-oxopropan-2-yl)oxy)-4-(o-tolyl)-2H-chromen-2-one] | 10 to 50 nM | < 20 nM
3 | CC(Oc1ccc2c(-c3ccccc3Cl)cc(=O)oc2c1)C(=O)N1CCCC(C)(C(=O)O)C1 (stereo not drawn) [Compound 54, 1-[2-[4-(2-chlorophenyl)-2-oxo-chromen-7-yl]oxypropanoyl]-3-methyl-piperidine-3-carboxylic acid] | < 10 nM | < 20 nM
4 | CC(C)NC(=O)[C@@H](C)Oc1ccc2c(-c3ccccc3Cl)cc(=O)oc2c1 [Compound 56, (2R)-2-[4-(2-chlorophenyl)-2-oxo-chromen-7-yl]oxy-N-isopropyl-propanamide] | < 10 nM | 20 to 100 nM
5 | CC(Oc1ccc2c(-c3ccccc3Cl)cc(=O)oc2c1)C(=O)N1CCC(CC(=O)O)CC1 (stereo not drawn) [Compound 59, 2-[1-[2-[4-(2-chlorophenyl)-2-oxo-chromen-7-yl]oxypropanoyl]-4-piperidyl]acetic acid] | 10 to 50 nM | 20 to 100 nM
6 | Cc1ccccc1-c1cc(=O)oc2cc(OC(C)C(=O)NC(C)C)ccc12 (stereo not drawn) [Compound 62, N-isopropyl-2-[4-(o-tolyl)-2-oxo-chromen-7-yl]oxy-propanamide] | < 10 nM | 20 to 100 nM
7 | CC(Oc1ccc2c(-c3ccccc3Cl)cc(=O)oc2c1)C(=O)N1CCCC(CC(=O)O)C1 (stereo not drawn) [Compound 66, 2-[1-[2-[4-(2-chlorophenyl)-2-oxo-chromen-7-yl]oxypropanoyl]-3-piperidyl]acetic acid] | < 10 nM | 20 to 100 nM
8 | CC(Oc1ccc2c(-c3ccc(F)cc3Cl)cc(=O)oc2c1)C(=O)N1CCCC(S(N)(=O)=O)C1 (stereo not drawn) [Compound 69, 1-[2-[4-(2-chloro-4-fluoro-phenyl)-2-oxo-chromen-7-yl]oxypropanoyl]piperidine-3-sulfonamide] | < 10 nM | 20 to 100 nM
9 | CC(C)NC(=O)C(C)Oc1ccc2c(-c3ccccc3Cl)cc(=O)oc2c1 (stereo not drawn) [Compound 70, 2-[4-(2-chlorophenyl)-2-oxo-chromen-7-yl]oxy-N-isopropyl-propanamide] | < 10 nM | 20 to 100 nM
10 | Cc1ccccc1-c1cc(=O)oc2cc(OC(C)C(=O)N3CCC[C@@H](C(=O)N(C)C)C3)ccc12 (stereo partly drawn) [Compound 78, (3R)-N,N-dimethyl-1-[2-[4-(o-tolyl)-2-oxo-chromen-7-yl]oxypropanoyl]piperidine-3-carboxamide] | < 10 nM | 20 to 100 nM
11 | CC(Oc1ccc2c(-c3ccccc3Cl)cc(=O)oc2c1)C(=O)N1CCCC(S(C)(=N)=O)C1 (stereo not drawn) [Compound 79, 4-(2-chlorophenyl)-7-[1-methyl-2-[3-(methylsulfonimidoyl)-1-piperidyl]-2-oxo-ethoxy]chromen-2-one] | < 10 nM | 20 to 100 nM
12 | COC(=O)CC1CCN(C(=O)C(C)Oc2ccc3c(-c4ccccc4Cl)cc(=O)oc3c2)CC1 (stereo not drawn) [Compound 80, methyl 2-[1-[2-[4-(2-chlorophenyl)-2-oxo-chromen-7-yl]oxypropanoyl]-4-piperidyl]acetate] | 50 to 500 nM | 20 to 100 nM
13 | CCOC(=O)C(C)Oc1ccc2c(-c3ccccc3Br)cc(=O)oc2c1 (stereo not drawn) [Compound 81, ethyl 2-[4-(2-bromophenyl)-2-oxo-chromen-7-yl]oxypropanoate] | 10 to 50 nM | 20 to 100 nM
14 | Cc1ccccc1-c1cc(=O)oc2cc(OC(C)C(=O)N3CCC[C@H](C(=O)N(C)C)C3)ccc12 (stereo partly drawn) [Compound 84, (3S)-N,N-dimethyl-1-[2-[4-(o-tolyl)-2-oxo-chromen-7-yl]oxypropanoyl]piperidine-3-carboxamide] | 10 to 50 nM | 20 to 100 nM
15 | CCNC(=O)C(C)Oc1ccc2c(-c3ccccc3C)cc(=O)oc2c1 (stereo not drawn) [Compound 85, N-ethyl-2-[4-(o-tolyl)-2-oxo-chromen-7-yl]oxy-propanamide] | 10 to 50 nM | 20 to 100 nM
16 | CCOC(=O)CC1CCCN(C(=O)C(C)Oc2ccc3c(-c4ccccc4Cl)cc(=O)oc3c2)C1 (stereo not drawn) [Compound 86, ethyl 2-[1-[2-[4-(2-chlorophenyl)-2-oxo-chromen-7-yl]oxypropanoyl]-3-piperidyl]acetate] | 10 to 50 nM | 20 to 100 nM
17 | CC(Oc1ccc2c(-c3ccccc3Br)cc(=O)oc2c1)C(=O)N(C)C (stereo not drawn) [Compound 89, 2-[4-(2-bromophenyl)-2-oxo-chromen-7-yl]oxy-N,N-dimethyl-propanamide] | < 10 nM | 20 to 100 nM
18 | CCNC(=O)C(C)Oc1ccc2c(-c3ccc(F)cc3Cl)cc(=O)oc2c1 (stereo not drawn) [Compound 91, 2-[4-(2-chloro-4-fluoro-phenyl)-2-oxo-chromen-7-yl]oxy-N-ethyl-propanamide] | < 10 nM | 20 to 100 nM
19 | CC(C)OC(=O)C(C)Oc1ccc2c(-c3ccccc3Br)cc(=O)oc2c1 (stereo not drawn) [Compound 92, isopropyl 2-[4-(2-bromophenyl)-2-oxo-chromen-7-yl]oxypropanoate] | < 10 nM | 20 to 100 nM
20 | CC(Oc1ccc2c(-c3ccccc3Cl)cc(=O)oc2c1)C(=O)N(C)C (stereo not drawn) [Compound 93, 2-[4-(2-chlorophenyl)-2-oxo-chromen-7-yl]oxy-N,N-dimethyl-propanamide] | < 10 nM | 20 to 100 nM
21 | CCNC(=O)C(C)Oc1ccc2c(-c3ccccc3Cl)cc(=O)oc2c1 (stereo not drawn) [Compound 98, 2-[4-(2-chlorophenyl)-2-oxo-chromen-7-yl]oxy-N-ethyl-propanamide] | < 10 nM | 100 to 1000 nM
22 | COC(=O)C[C@H]1CCCN(C(=O)[C@@H](C)Oc2ccc3c(-c4ccc(F)cc4Cl)cc(=O)oc3c2)C1 [Compound 104, methyl 2-[(3R)-1-[(2R)-2-[4-(2-chloro-4-fluoro-phenyl)-2-oxo-chromen-7-yl]oxypropanoyl]-3-piperidyl]acetate] | 10 to 50 nM | < 20 nM
23 | COC(=O)C[C@@H]1CCCN(C(=O)[C@@H](C)Oc2ccc3c(-c4ccc(F)cc4Cl)cc(=O)oc3c2)C1 [Compound 105, methyl 2-[(3S)-1-[(2R)-2-[4-(2-chloro-4-fluoro-phenyl)-2-oxo-chromen-7-yl]oxypropanoyl]-3-piperidyl]acetate] | 10 to 50 nM | 20 to 100 nM
24 | C[C@@H](Oc1ccc2c(-c3ccc(F)cc3Cl)cc(=O)oc2c1)C(=O)N1CCC[C@H](CC(=O)O)C1 [Compound 106, 2-[(3R)-1-[(2R)-2-[4-(2-chloro-4-fluoro-phenyl)-2-oxo-chromen-7-yl]oxypropanoyl]-3-piperidyl]acetic acid] | < 10 nM | < 20 nM
25 | C[C@@H](Oc1ccc2c(-c3ccc(F)cc3Cl)cc(=O)oc2c1)C(=O)N1CCC[C@@H](CC(=O)O)C1 [Compound 107, 2-[(3S)-1-[(2R)-2-[4-(2-chloro-4-fluoro-phenyl)-2-oxo-chromen-7-yl]oxypropanoyl]-3-piperidyl]acetic acid] | < 10 nM | < 20 nM
26 | CCC(Oc1ccc2c(-c3ccccc3Cl)cc(=O)oc2c1)C(=O)N1CCC[C@H](C(=O)O)C1 (stereo partly drawn) [Compound 110, (3S)-1-[2-[4-(2-chlorophenyl)-2-oxo-chromen-7-yl]oxybutanoyl]piperidine-3-carboxylic acid] | < 10 nM | < 20 nM
27 | CCOC(=O)[C@H]1CCCN(C(=O)[C@@H](C)Oc2ccc3c(-c4ccc(F)cc4Cl)cc(=O)oc3c2)C1 [Compound 111, ethyl (3S)-1-[(2R)-2-[4-(2-chloro-4-fluoro-phenyl)-2-oxo-chromen-7-yl]oxypropanoyl] piperidine-3-carboxylate] | 50 to 500 nM | 20 to 100 nM
28 | CC(C)NC(=O)C(C)(C)Oc1ccc2c(-c3ccccc3Cl)cc(=O)oc2c1 [Compound 114, 2-[4-(2-chlorophenyl)-2-oxo-chromen-7-yl]oxy-N-isopropyl-2-methyl-propanamide] | 10 to 50 nM | 100 to 1000 nM
29 | Cc1ccccc1-c1cc(=O)oc2cc(OC(C)(C)C(=O)NC(C)C)ccc12 [Compound 115, N-isopropyl-2-methyl-2-[4-(o-tolyl)-2-oxo-chromen-7-yl]oxy-propanamide] | 10 to 50 nM | 100 to 1000 nM
30 | CC(C)(Oc1ccc2c(-c3ccccc3Cl)cc(=O)oc2c1)C(=O)N1CCC[C@H](C(=O)O)C1 [Compound 116, (3S)-1-[2-[4-(2-chlorophenyl)-2-oxo-chromen-7-yl]oxy-2-methyl-propanoyl]piperidine-3-carboxylic acid] | 500 to 5000 nM | 100 to 1000 nM

— US11111238B2, “Coumarin derivatives, processes for their preparation and uses thereof for the treatment of cancer” (Lead Discovery Center GmbH, priority 2017, dated 2021)
